{"source": "patent US20060199841A1", "about": "“Pharmaceutical combination for the treatment of spasticity and/or pain” (priority 2003, published 2006)", "key": {"[1]": {"tested_on": "GYKI 20039 induced tremor", "assay": "Tremor test in mice (GYKI 20039 induced tremor)", "format": "in vivo", "conditions": "for ED50: Mus musculus, ip; for Tremor inhibitory effect ED50: i.p.", "excerpt": "Tremor can be induced by administration of GYKI 20039 (3-(2,6-dichlorophenyl)-2-iminothiazolidine). The method was published by Kocsis P., Tarnawa I., Kovács Gy., Szombathelyi Zs., Farkas S., 2002; Acta Pharmaceut. Hung., 72:49-61; U.S. Pat. No. 5,340,823, 1994, U.S. Pat. No. 5,198,446, JP 1992270293, EP 0468825, 1990 HU 4647.\nThe aim of our experiments was to decide if the effect of tolperisone is influenced by co-administration of dextromethorphan."}, "[2]": {"tested_on": "monosynaptic reflex, hemisected spinal cord preparation", "assay": "Spinal reflex inhibitory action in vitro, hemisected spinal cord preparation", "procedure": "Spinal reflex Inhibitory Action, In Vitro\nOur experiments were performed according to the methods described by Otsuka and Konishi (Otsuka and Konishi, Nature 1974. 252, 733.), with slight modifications (Kocsis et al., Brain Res. Bull. 2003. 60, 81.).\nThis experiment is suitable for testing central muscle relaxant activity. In the tremor test the efficacy of drugs may be considerably influenced by metabolic and pharmacokinetic factors, therefore we used an in vitro model to investigate the pharmacodynamic interaction between the components of the combination without the interference of the above factors.\nWe determined the dose-response curve for monosynaptic reflex inhibition of dextromethorphan alone, and in the presence of tolperisone or eperisone. In the control study we measured the effect of dextromethorphan at 0.25; 0.5 and 1 μM. In other experiments we added tolperisone (25 μM) or eperisone (20 μM) to the perfusion solution, and taking the equilibrium responses in these conditions as references, we measured the reflex inhibitory action of dextromethorphan. […] The potentiating effect of eperisone has been even more expressed (see Table 4.)."}, "[3]": {"tested_on": "neuropathic pain (allodynia)", "assay": "Rat allodynia model (Bennet-Xie model, von Frey filaments)", "format": "in vivo", "conditions": "for analgesic effect in the allodynia model (in words): i.p., dextromethorphan 10 mg/kg alone or in combined treatment with tolperisone", "excerpt": "In our experiments, we applied the Bennet-Xie model (G. J. Bennett, Y.-K. Xie, Pain 33: 87-107; 1988) to test the effect of the combination against neuropathic pain. We measured the threshold of the pain reaction with von Frey filaments calibrated to 0.9, 1.2, 1.8, 3.6, 5.4, 6.9, 8.9, 12 and 20 g."}, "pain": {"tested_on": "pain", "conditions": "cited from earlier work"}, "[4]": {"conditions": "in humans; cited from earlier work"}, "[5]": {"conditions": "15-minute pre-treatment, dose causing 50% tremor inhibition"}, "[6]": {"conditions": "15-minute pre-treatment, dose causing 50% tremor inhibition, read-out: Tremor inhibitory effect ED50"}}, "note": "pIC50: −log10 of the molar value. Where two headings read alike, the source gives them in different places."}
{"smiles": "COc1ccc2c(c1)[C@]13CCCC[C@@H]1[C@H](C2)N(C)CC3", "note": "(racemic) [Dextromethorphan, (+/−)-3-methoxi-17-methylmorphinan]", "values": [{"measurement": "Inhibition of tremor (control %) Mean", "setting": "[1]; 10 mg/kg dextromethorphan i.p.", "value": 8, "unit": "control %"}, {"measurement": "tremor inhibition (in words)", "setting": "[1]; 10 mg/kg dextromethorphan, 10-minute pre-treatment", "value": "no significant tremor inhibition"}, {"measurement": "ED50", "setting": "[1]; read-out: ED50 of inhibition of the tremor", "value": 24.4, "unit": "mg/kg"}, {"measurement": "inhibition at 0.25 µM", "setting": "[2]; dextromethorphan 0.25 μM alone", "value": 20.7, "unit": "%"}, {"measurement": "inhibition at 0.5 µM", "setting": "[2]; dextromethorphan 0.5 μM alone", "value": 36.6, "unit": "%"}, {"measurement": "inhibition at 1 µM", "setting": "[2]; dextromethorphan 1 μM alone", "value": 40.9, "unit": "%"}, {"measurement": "pIC50", "setting": "[2]; dextromethorphan alone, read-out: IC50 of dextromethorphan, reflex inhibitory activity", "value": 5.81}, {"measurement": "Threshold value (g) mean", "setting": "[3]; dextromethorphan 10 mg/kg i.p., time 0 min", "value": 3.26, "unit": "g"}, {"measurement": "Threshold value (g) mean", "setting": "[3]; dextromethorphan 10 mg/kg i.p., time 10 min", "value": 7.57, "unit": "g"}, {"measurement": "Threshold value (g) mean", "setting": "[3]; dextromethorphan 10 mg/kg i.p., time 20 min", "value": 6.03, "unit": "g"}, {"measurement": "analgesic effect in the allodynia model (in words)", "setting": "[3]", "value": "practically ineffective"}, {"measurement": "effect in the treatment of chronic pain", "setting": "pain; clinical trials, Ben-Abraham and Weinbroum 2000", "value": "ineffective"}, {"measurement": "effect in an experimental human pain model", "setting": "pain; clinically acceptable dose range, Kaippula et al. 1995", "value": "no effect"}, {"measurement": "relieving acute ischemic pain", "setting": "pain; in humans, Plesan et al. 2000", "value": "without effect"}]}
{"smiles": "Cc1ccccc1-n1c(CF)nc2ccc(N)cc2c1=O", "note": "[Afloqualon]", "values": [{"measurement": "Tremor inhibitory effect ED50", "setting": "[1]; [5]", "value": 11.1, "unit": "mg/kg"}]}
{"smiles": "NCC(CC(=O)O)c1ccc(Cl)cc1", "note": "(stereo not shown) [Baclofen]", "values": [{"measurement": "ED50", "setting": "[1]; [6]", "value": 9.1, "unit": "mg/kg"}]}
{"smiles": "CCc1ccc(C(=O)C(C)CN2CCCCC2)cc1", "note": "(stereo not shown) [Eperisone, 2-mehyl-1-(4-ethylphenyl)-3-(1-piperidinyl)-1-propanone]", "values": [{"measurement": "Tremor inhibitory effect ED50", "setting": "[1]; [5]", "value": 51.8, "unit": "mg/kg"}]}
{"smiles": "CC12CC3CC(C)(C1)CC(N)(C3)C2", "note": "[Memantine]", "values": [{"measurement": "ED50", "setting": "[1]; [6]", "value": 20.5, "unit": "mg/kg"}]}
{"smiles": "Cc1ccccc1OCC(O)CO", "note": "(stereo not shown) [Mephenesin]", "values": [{"measurement": "ED50", "setting": "[1]; [6]", "value": 81.5, "unit": "mg/kg"}]}
{"smiles": "Clc1ccc2nsnc2c1NC1=NCCN1", "note": "[Tizanidine]", "values": [{"measurement": "ED50", "setting": "[1]; [6]", "value": 0.73, "unit": "mg/kg"}]}
{"smiles": "Cc1ccc(C(=O)C(C)CN2CCCCC2)cc1", "note": "(stereo not shown) [Tolperisone, 2-mehyl-1-(4-methylphenyl)-3-(1-piperidinyl)-1-propanone]", "values": [{"measurement": "Inhibition of tremor (control %) Mean", "setting": "[1]; 40 mg/kg tolperisone i.p.", "value": 27, "unit": "control %"}, {"measurement": "Inhibition of tremor (control %) Mean", "setting": "[1]; 60 mg/kg tolperisone i.p.", "value": 48, "unit": "control %"}, {"measurement": "Tremor inhibitory effect ED50", "setting": "[1]; [5]", "value": 60.0, "unit": "mg/kg"}, {"measurement": "Inhibition of tremor (%)", "setting": "[1]; tolperisone 60 mg/kg i.p., dextromethorphan 0 mg/kg", "value": 48.3, "unit": "%"}, {"measurement": "ED50 for the tremor inhibitory activity", "setting": "[1]; tolperisone alone", "value": "55.0 ± 7.2", "unit": "mg/kg"}, {"measurement": "Reflex Inhibition (%)", "setting": "[2]; tolperisone 25 μM alone", "value": 26.97, "unit": "%"}, {"measurement": "Reflex Inhibition (%)", "setting": "[2]; tolperisone 50 μM alone", "value": 48.61, "unit": "%"}, {"measurement": "Reflex Inhibition (%)", "setting": "[2]; tolperisone 100 μM alone", "value": 70.30, "unit": "%"}, {"measurement": "pIC50", "setting": "[2]; tolperisone alone, sigmoid fitting, read-out: IC50 of tolperisone, reflex inhibitory activity", "value": 4.28}, {"measurement": "analgesic effect in the allodynia model (in words)", "setting": "[3]", "value": "significant analgesic effect"}, {"measurement": "Threshold value (g) mean", "setting": "[3]; tolperisone 20 mg/kg i.p., time 0 min", "value": 3.6, "unit": "g"}, {"measurement": "Threshold value (g) mean", "setting": "[3]; tolperisone 20 mg/kg i.p., time 10 min", "value": 14.89, "unit": "g"}, {"measurement": "Threshold value (g) mean", "setting": "[3]; tolperisone 20 mg/kg i.p., time 20 min", "value": 10.31, "unit": "g"}, {"measurement": "oral bioavailability", "setting": "[4]", "value": "16-20%"}]}
